Patent publication US11697648B2, “Fused pyrimidine pyridinone compounds as JAK inhibitors” (THERAVANCE BIOPHARMA R&D IP, LLC, priority 2019, dated 2023)

Legend:
JAK1 = JAK1 (Homo sapiens (Human), UniProt P23458); test: Biochemical JAK1 kinase assay (LanthaScreen)
In short: (§1)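 GST-JAK + GFP-STAT1 peptide, HEPES pH 7.5/MgCl2/EGTA/Brij-35 buffer; cpd preincubation 1 h RT; ATP start, 1 h RT; stop with 10 mM EDTA + 2 nM Tb-anti-pSTAT1; TR-FRET 520/495. 4-parameter IC50 → pKi (Cheng-Prusoff).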

Tyk2 = Tyk2 (Homo sapiens (Human), UniProt P29597); test: Biochemical Tyk2 kinase assay (LanthaScreen)
Sequence of Tyk2 (P29597 whole entry): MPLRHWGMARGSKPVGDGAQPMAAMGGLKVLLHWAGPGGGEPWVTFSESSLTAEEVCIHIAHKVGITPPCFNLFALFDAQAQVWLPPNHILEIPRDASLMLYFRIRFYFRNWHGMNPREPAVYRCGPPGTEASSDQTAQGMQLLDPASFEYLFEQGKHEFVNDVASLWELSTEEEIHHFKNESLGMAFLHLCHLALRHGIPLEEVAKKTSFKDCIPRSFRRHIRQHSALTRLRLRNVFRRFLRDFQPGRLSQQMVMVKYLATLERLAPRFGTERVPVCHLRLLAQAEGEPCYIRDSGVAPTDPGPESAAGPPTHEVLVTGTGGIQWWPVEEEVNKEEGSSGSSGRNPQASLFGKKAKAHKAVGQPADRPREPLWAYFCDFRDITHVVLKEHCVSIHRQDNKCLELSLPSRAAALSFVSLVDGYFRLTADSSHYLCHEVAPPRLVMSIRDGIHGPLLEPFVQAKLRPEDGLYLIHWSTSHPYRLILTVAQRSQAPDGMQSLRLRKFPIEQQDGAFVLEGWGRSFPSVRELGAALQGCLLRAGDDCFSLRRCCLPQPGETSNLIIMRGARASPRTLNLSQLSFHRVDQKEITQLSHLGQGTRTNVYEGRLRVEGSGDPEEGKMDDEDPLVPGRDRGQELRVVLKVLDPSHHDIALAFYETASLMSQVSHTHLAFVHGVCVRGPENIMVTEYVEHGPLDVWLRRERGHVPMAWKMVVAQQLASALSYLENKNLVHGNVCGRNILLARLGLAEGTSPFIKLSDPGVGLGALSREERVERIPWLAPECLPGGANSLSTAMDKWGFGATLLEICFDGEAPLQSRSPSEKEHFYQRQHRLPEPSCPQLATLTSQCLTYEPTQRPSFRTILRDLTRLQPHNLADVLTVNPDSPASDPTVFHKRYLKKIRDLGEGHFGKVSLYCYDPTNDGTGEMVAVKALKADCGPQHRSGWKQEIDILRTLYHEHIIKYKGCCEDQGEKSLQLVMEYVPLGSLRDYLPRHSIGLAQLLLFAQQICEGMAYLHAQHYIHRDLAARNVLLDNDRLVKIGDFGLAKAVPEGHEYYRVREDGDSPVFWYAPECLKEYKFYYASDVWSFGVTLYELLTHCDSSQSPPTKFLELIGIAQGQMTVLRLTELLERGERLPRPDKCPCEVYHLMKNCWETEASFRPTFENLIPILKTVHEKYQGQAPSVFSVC
In short: as §1

Caco-2 cell monolayers = test: Caco-2 permeation assay; type: in vitro ADME; settings: 5 μM, A-B direction, with Verapamil (25 μM)
Description: Assay 4: Caco-2 Permeation Assay
The Caco-2 permeation assay was performed to model the ability of test compounds to pass through the intestine and get into the blood stream after oral administration. The rate at which test compounds in solution permeate a cell monolayer designed to mimic the tight junction of human small intestinal monolayers was determined.
CacoReady 24-well transwell plates were obtained from ADMEcell (Alameda, Calif.). The compounds were evaluated at a concentration of 5 μM from 10 mM DMSO stock solutions in duplicate (n=2). The passive permeability of the compounds tested was evaluated using Caco-2 cell monolayers along with Verapamil (25 μM) to inhibit P-gp transport proteins in the apical to basolateral (A-B) direction. The experiment was conducted in a 37° C., 5% CO2 incubator. Caco-2 culture media consisted of standard filtered DMEM, FCS 10%, L-Glutamine 1% and PenStrep 1%. Basal assay plate was prepared by adding 750 μL of transport buffer to A-B wells. A CacoReady™ plate was prepared by removing the Caco-2 media from the apical wells and replacing with fresh transport media (200 μL repeated for a total of 3 washes). Blank media (200 μL) was then replaced with diluted compound for A-B wells. To begin the incubation, the basal plate was removed from the incubator and the apical section was added on top of it. Samples (40 μL) were collected from the apical and basal compartments for time zero (t0). Samples were collected again after 120 minutes (t120) from the apical and basal compartments. All samples were diluted and prepared for bioanalysis by LC-MS/MS. The permeation coefficient (Kp, mean A to B+ Verapamil Papparent) in cm/sec was calculated as dQ (flux)/(dt×Area×concentration).
In this assay, a Kp value less than about 5×10^−6 cm/sec is considered favorable to minimize systemic exposure and target the colon. A Kp value less than about 10×10^−6 cm/sec may also be sufficient to minimize systemic exposure and target the colon.

JAK3 = JAK3 (Homo sapiens (Human), UniProt P52333); test: Biochemical JAK3 kinase assay (LanthaScreen); settings: for JAK3 (pKi)-JAK1 (pKi): selectivity JAK3 over JAK1, difference of pKi
Sequence of JAK3 (P52333 whole entry): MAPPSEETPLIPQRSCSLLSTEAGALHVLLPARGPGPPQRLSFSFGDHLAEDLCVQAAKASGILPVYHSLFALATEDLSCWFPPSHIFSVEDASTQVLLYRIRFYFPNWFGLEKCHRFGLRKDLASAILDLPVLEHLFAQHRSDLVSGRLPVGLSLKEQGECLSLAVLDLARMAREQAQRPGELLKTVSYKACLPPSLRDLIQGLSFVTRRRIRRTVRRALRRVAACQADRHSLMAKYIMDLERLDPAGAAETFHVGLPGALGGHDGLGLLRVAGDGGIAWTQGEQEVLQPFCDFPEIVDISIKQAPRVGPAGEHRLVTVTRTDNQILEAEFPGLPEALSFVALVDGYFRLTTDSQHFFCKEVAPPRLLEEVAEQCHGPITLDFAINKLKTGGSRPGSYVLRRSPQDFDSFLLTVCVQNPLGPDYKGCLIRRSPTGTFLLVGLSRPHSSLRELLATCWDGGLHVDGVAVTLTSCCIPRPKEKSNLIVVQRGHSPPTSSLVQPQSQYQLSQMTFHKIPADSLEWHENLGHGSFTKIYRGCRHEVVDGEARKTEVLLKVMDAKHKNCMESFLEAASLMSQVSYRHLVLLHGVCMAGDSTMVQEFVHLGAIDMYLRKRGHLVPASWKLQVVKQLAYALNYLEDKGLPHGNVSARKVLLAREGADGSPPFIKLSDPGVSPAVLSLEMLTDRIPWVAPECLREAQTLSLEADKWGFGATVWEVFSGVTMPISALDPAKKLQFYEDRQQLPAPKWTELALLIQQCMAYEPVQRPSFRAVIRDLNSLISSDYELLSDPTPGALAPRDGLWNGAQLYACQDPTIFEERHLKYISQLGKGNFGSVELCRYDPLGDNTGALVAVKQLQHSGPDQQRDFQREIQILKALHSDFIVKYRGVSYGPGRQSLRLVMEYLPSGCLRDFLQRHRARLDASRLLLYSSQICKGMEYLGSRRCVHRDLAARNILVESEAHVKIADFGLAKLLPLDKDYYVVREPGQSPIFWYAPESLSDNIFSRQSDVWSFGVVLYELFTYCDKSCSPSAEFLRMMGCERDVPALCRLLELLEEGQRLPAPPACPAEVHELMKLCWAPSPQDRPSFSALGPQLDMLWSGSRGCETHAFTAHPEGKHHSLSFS
In short: as §1

JAK2 = JAK2 (Homo sapiens (Human), UniProt O60674); test: Biochemical JAK2 kinase assay (LanthaScreen)
Sequence of JAK2 (O60674 whole entry): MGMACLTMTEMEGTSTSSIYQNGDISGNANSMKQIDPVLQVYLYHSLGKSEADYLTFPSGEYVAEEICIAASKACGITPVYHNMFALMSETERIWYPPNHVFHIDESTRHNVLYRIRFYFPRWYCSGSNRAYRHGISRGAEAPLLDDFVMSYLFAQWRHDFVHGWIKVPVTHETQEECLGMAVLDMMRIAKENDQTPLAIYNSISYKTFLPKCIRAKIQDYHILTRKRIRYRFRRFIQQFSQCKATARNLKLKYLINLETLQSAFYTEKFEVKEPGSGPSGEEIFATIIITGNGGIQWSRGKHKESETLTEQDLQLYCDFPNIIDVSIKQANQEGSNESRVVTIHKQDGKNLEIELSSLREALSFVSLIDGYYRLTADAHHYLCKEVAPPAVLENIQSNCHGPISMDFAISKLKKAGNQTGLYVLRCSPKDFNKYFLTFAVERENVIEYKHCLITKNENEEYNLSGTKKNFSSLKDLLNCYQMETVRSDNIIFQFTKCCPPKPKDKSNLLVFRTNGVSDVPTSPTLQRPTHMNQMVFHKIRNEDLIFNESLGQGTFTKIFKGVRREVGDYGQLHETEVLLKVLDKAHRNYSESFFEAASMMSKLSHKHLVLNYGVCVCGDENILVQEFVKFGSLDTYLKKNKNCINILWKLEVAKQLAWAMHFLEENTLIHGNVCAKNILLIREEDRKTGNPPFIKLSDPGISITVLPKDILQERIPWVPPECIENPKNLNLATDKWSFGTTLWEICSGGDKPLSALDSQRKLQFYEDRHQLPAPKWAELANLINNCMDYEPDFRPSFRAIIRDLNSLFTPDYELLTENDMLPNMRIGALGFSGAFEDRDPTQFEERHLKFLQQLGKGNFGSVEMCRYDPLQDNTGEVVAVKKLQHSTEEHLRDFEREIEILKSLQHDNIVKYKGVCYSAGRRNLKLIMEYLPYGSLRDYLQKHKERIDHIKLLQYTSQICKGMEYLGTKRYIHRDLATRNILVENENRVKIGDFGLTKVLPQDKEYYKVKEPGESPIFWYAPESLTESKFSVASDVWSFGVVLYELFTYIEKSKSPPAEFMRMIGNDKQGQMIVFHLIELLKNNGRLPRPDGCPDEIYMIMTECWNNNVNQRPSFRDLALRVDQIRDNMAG
In short: as §1

[1] = tested on: IL-2 stimulated STAT5 phosphorylation in Tall-1 human T cell line (JAK3); test: Cellular JAK3 potency assay: inhibition of IL-2 stimulated pSTAT5 in Tall-1 T cells; type: cell-based; settings: IL-2 stimulated pSTAT5, Tall-1 T cells
In short: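 AlphaLISA SureFire Ultra measures STAT5 Tyr694/699 phosphorylation in lysed Tall-1 human T cells. Cells were exposed to compound for 1 h at 37 °C before a 30 min IL-2 challenge (300 ng/ml final). Values are pIC50 means with standard deviation from signal-versus-concentration curves.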

Sequence of JAK1 (P23458 whole entry): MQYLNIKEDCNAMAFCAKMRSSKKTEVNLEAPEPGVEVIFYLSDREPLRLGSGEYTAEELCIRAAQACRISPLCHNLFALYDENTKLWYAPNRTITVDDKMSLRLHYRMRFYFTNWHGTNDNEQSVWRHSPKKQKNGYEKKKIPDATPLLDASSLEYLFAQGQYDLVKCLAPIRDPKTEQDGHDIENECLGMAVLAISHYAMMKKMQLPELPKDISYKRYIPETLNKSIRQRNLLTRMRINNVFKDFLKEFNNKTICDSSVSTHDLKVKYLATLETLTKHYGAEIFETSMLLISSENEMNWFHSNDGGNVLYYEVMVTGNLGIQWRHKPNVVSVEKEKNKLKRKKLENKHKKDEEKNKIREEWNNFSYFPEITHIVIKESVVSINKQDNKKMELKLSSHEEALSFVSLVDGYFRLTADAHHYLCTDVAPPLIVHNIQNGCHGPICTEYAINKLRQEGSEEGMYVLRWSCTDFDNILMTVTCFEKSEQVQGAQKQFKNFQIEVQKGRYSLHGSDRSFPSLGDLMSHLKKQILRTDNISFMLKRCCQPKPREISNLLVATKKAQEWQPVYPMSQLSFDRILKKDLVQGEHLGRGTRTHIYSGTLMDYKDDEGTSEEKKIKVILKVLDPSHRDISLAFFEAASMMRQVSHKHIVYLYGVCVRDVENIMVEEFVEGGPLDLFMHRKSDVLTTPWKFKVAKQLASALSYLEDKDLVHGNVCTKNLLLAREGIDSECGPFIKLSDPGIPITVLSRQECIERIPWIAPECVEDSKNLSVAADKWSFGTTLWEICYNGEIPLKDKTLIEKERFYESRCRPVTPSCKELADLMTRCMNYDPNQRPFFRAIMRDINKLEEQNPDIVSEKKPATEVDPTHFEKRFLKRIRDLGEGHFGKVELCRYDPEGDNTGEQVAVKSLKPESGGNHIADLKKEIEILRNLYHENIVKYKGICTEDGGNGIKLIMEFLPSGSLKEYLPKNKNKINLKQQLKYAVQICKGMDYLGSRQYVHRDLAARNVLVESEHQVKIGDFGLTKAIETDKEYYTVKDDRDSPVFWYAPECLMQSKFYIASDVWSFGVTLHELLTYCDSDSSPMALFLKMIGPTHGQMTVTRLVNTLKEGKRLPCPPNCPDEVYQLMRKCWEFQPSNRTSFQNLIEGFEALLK

Compound | JAK 1 (pKi) (JAK1) | Tyk 2 (pKi) (Tyk2) | Caco Kp (Caco-2 cell monolayers) | JAK 3 (pKi) (JAK3) | JAK3 (pKi)-JAK1 (pKi) (JAK3) | JAK 2 (pKi) (JAK2) | Tall-1 (pIC50) [1]
C=CC(=O)N1CC(CCn2c(=O)ccc3cnc(Nc4cccc(CN5CCN(S(=O)(=O)CC#N)CC5)c4)nc32)C1 [Example 125] | E (E represents a pKi value of 7 or below (Ki of 100 nM or above)) | E (E represents a pKi value of 7 or below (Ki of 100 nM or above)) | B (B represents a value between 5×10^−6 and 10×10^−6 cm/sec) | A (A represents a pKi value≥10 (Ki≤0.1 nM)) | A (A represents a value of 3 or above) | E (E represents a pKi value of 7 or below (Ki of 100 nM or above)) | B (B represents a pC50 value between 6.7 (included) and 7.5 (IC50 between 200 nM and 32 nM))
C=CC(=O)N1CC(CCn2c(=O)ccc3cnc(Nc4ccc(N5CCN(C(C)=O)C(C)(C)C5)cc4)nc32)C1 [Example 179] | E (E represents a pKi value of 7 or below (Ki of 100 nM or above)) | E (E represents a pKi value of 7 or below (Ki of 100 nM or above)) | C (C represents a value between 10×10^−6 and 30×10^−6 cm/sec) | A (A represents a pKi value≥10 (Ki≤0.1 nM)) | A (A represents a value of 3 or above) | E (E represents a pKi value of 7 or below (Ki of 100 nM or above)) | B (B represents a pC50 value between 6.7 (included) and 7.5 (IC50 between 200 nM and 32 nM))
C=CC(=O)N1CCN(CCn2c(=O)ccc3cnc(Nc4ccc(N5CCN(S(=O)(=O)CCOC)CC5)cc4)nc32)[C@@H](C)C1 [Example 170] | E (E represents a pKi value of 7 or below (Ki of 100 nM or above)) | E (E represents a pKi value of 7 or below (Ki of 100 nM or above)) | B (B represents a value between 5×10^−6 and 10×10^−6 cm/sec) | A (A represents a pKi value≥10 (Ki≤0.1 nM)) | A (A represents a value of 3 or above) | E (E represents a pKi value of 7 or below (Ki of 100 nM or above)) | A (A represents a pIC50 value≥7.5 (IC50≤32 nM))
C=CC(=O)N1CC(CCn2c(=O)ccc3cnc(Nc4ccc(N5CCN(C)CC5)cn4)cc32)C1 [Example 14] | E (E represents a pKi value of 7 or below (Ki of 100 nM or above)) | E (E represents a pKi value of 7 or below (Ki of 100 nM or above)) | A (A represents a value below 5×10^−6 cm/sec) | B (B represents pKi value between 9 and 10 (Ki between 1 nM and 0.1 nM)) | A (A represents a value of 3 or above) | E (E represents a pKi value of 7 or below (Ki of 100 nM or above)) | A (A represents a pIC50 value≥7.5 (IC50≤32 nM))
C=CC(=O)N1CC(CC)(CCn2c(=O)ccc3cnc(Nc4ccc(N5CCN(C(C)=O)CC5)cc4)nc32)C1 [Example 180] | E (E represents a pKi value of 7 or below (Ki of 100 nM or above)) | E (E represents a pKi value of 7 or below (Ki of 100 nM or above)) | A (A represents a value below 5×10^−6 cm/sec) | B (B represents pKi value between 9 and 10 (Ki between 1 nM and 0.1 nM)) | A (A represents a value of 3 or above) | E (E represents a pKi value of 7 or below (Ki of 100 nM or above)) | B (B represents a pC50 value between 6.7 (included) and 7.5 (IC50 between 200 nM and 32 nM))
C=CC(=O)N1CC(CCn2c(=O)ccc3cnc(Nc4ccc(CN5CCSCC5)cc4)nc32)C1 [Example 86] | E (E represents a pKi value of 7 or below (Ki of 100 nM or above)) | E (E represents a pKi value of 7 or below (Ki of 100 nM or above)) | C (C represents a value between 10×10^−6 and 30×10^−6 cm/sec) | B (B represents pKi value between 9 and 10 (Ki between 1 nM and 0.1 nM)) | A (A represents a value of 3 or above) | E (E represents a pKi value of 7 or below (Ki of 100 nM or above)) | B (B represents a pC50 value between 6.7 (included) and 7.5 (IC50 between 200 nM and 32 nM))
